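Interpolation was linear, between the two tested concentrations surrounding the appropriate level; five concentrations were tested over 48 hours in 96-well plates. GI50: concentration for 50% inhibition of growth. TGI marks complete inhibition of growth.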

Common to all, as to experiment: growth of human tumour cells (NCI), 48 h
Assay [1] has as its system 786-0 renal.
The test system of assay [2] is A498 renal.
For assay [3], the system named is ACHN renal.
Assay [4] concerns HL-60(TB) leukemia.
Assay [5] relates to HOP-62 NSCLC.
Assay [6] relates to HOP-92 NSCLC.
Assay [7] relates to LOX IMVI melanoma.
Assay [8] concerns M14 melanoma.
Assay [9] deals with NCI-H460 lung.
Assay [10] concerns PC-3 prostate.
Assay [11] deals with RXF 393 renal.
Assay [12] deals with SK-MEL-2 melanoma.
The subject of assay [13] is T-47D breast.
Assay [14] deals with UACC-257 melanoma.
Assay [15] has as its system UACC-62 melanoma.
Assay [16] deals with CAKI-1 renal.

Consider `CN(NC(=O)c1cccs1)C1=NCCCCN1`, for which the TGI in assay [1], in [2], in assay [3], in assay [4], in [5] and in [6] was more than 100 µM in each case. In addition, the TGI in [7], in assay [8], in assay [9], in assay [10], in assay [11] and in assay [12] was more than 100 µM in each case. Also, the TGI in assay [13], in assay [14] and in assay [15] was more than 100 µM each time.

Take `CO/N=C(\C(=O)N(C)n1cnnc1)c1csc(NC(c2ccccc2)(c2ccccc2)c2ccccc2)n1`: the TGI in assay [1], in [2], in [3], in [16], in [4] and in assay [5] was more than 10 µM in each case. The TGI in assay [6], in assay [7], in assay [8], in [9], in [10] and in assay [11] was more than 10 µM in each case. In addition, the TGI in [12], in assay [13] and in [14] was more than 10 µM in each case.

Turning to `CCCCCCCCCCCCCCCCOCC(Cl)COP(=O)(O)OP(=O)(O)OCC1OC(n2cc(C)c(=O)[nH]c2=O)CC1O` (configuration not stated), the TGI in [1], in assay [2], in assay [3], in assay [16], in [4] and in assay [5] was more than 100 µM in each case. Besides, the TGI in [6] was more than 100 µM; in [7] it was more than 100 µM; in [8], more than 100 µM; in assay [9], more than 100 µM; in assay [10], 62.9 µM; in assay [11] it was more than 100 µM. The TGI in assay [12], in assay [13] and in [14] was more than 100 µM each time.

Turning to `COC(=O)c1c(O)ccc2c1c1c(n2Cc2ccc(Cl)cc2Cl)C(=O)c2ccccc2C1=O`, the TGI in assay [1] came out at 22.9 µM; in assay [2], 33.7 µM; in assay [3] it was 20.4 µM; in assay [16], 27.2 µM; in [4], 34.2 µM; in [5], 23.5 µM. In addition, the TGI in assay [6] was 25.1 µM; in assay [7], 33.3 µM; in [8], 29 µM; in assay [9] it was 13 µM; in [10] it was 21.3 µM; in assay [11] it was 19.7 µM. Also, the figures for the TGI in assay [12], in [13] and in [14] were 28.8 µM, 13.7 µM and 30.1 µM, respectively.

In the case of `N#C/C(C(=O)Nc1ccc(Cl)cc1)=C(/N)N1CCCCC1`, the TGI in assay [1], in [2], in assay [3], in [16], in assay [4] and in assay [5] was more than 100 µM in each case. Moreover, the TGI in assay [6], in assay [7], in assay [8], in [9], in [10] and in assay [12] was more than 100 µM each time. In addition, the TGI in assay [13], in assay [14] and in [15] was more than 100 µM each time.

Take `CC(=O)NC(CCC(=O)C=[N+]=N)C(=O)O` (configuration not stated): the TGI in assay [1], in assay [2], in assay [3], in [4], in assay [5] and in assay [6] was more than 100 µM throughout. Besides, the TGI in assay [7], in assay [8], in assay [9], in assay [10], in assay [11] and in [12] was more than 100 µM in each case. For the same compound, the TGI in assay [13], in assay [14] and in assay [15] was more than 100 µM in each case.

Take `COc1cc(C2C(C#N)=C(N)OC3=C2CCS(=O)(=O)c2ccc(C)cc23)cc(OC)c1OC` (configuration not stated): the TGI in [1], in assay [2], in [3], in assay [16], in assay [4] and in assay [5] was more than 100 µM throughout. Also, the TGI in assay [6], in [7], in [8], in [9], in [10] and in assay [12] was more than 100 µM each time. In addition, the TGI in assay [13], in assay [14] and in assay [15] was more than 100 µM throughout.

Regarding `CC1=CC[C@@]2(CO)[C@@H]([C@@H]1C)[C@H]1CC[C@@H]3[C@@]4(C)CC[C@H](O)C(C)(C)[C@@H]4CC[C@@]3(C)[C@]1(C)C[C@@H]2O`, the TGI in assay [1] is more than 100 µM; in assay [2] it was 58.8 µM; in assay [3] it was 91.7 µM; in [16], more than 100 µM; in [4], more than 100 µM; in assay [5], 39.8 µM. Besides, the TGI in [6] was 44 µM; in assay [7], 45.2 µM; in assay [8], more than 100 µM; in assay [9] it was more than 100 µM; in assay [10], more than 100 µM; in assay [11], 25.7 µM. For the same compound, the TGI was 75.1 µM in assay [13], more than 100 µM in assay [14] and more than 100 µM in assay [15].

For the compound `[O-][n+]1ccccc1S`, the TGI is more than 100 µM in [1]; more than 100 µM in assay [2]; more than 100 µM in assay [3]; 8.09 µM in [16]; 13.1 µM in [5]; more than 100 µM in assay [6]. The TGI in assay [7] was more than 100 µM; in [8], more than 100 µM; in assay [9], 5.21 µM; in [10] it was more than 100 µM; in [11], 8.33 µM; in assay [12] it was 9.13 µM. For the same compound, the TGI in [13] is more than 100 µM; in assay [14], 64.4 µM; in assay [15], 29.6 µM. Also, the GI50 is 3.61 µM in assay [10] and 6.27 µM in [13].

For the compound `CC(=O)Oc1ccccc1/C=C/C(=O)/C=C/c1ccccc1OC(C)=O`, the TGI is 3.71 µM in [1]; 4.01 µM in assay [2]; 3.62 µM in [3]; 10.4 µM in [16]; 5.32 µM in [5]; 10.7 µM in [6]. Further, the TGI in [7] was found to be 2.01 µM; in assay [8], 4.45 µM; in assay [9], 6.48 µM; in assay [10], 5.04 µM; in assay [11] it was 1.65 µM; in assay [12] it was 21.1 µM. The TGI in assay [13] was determined as 34.9 µM; in assay [14], 2.96 µM; in assay [15] it was 3.48 µM.

As to `Clc1cc(Cl)cc(C2ON=C(c3ccccc3)N2C23CC4CC(CC(C4)C2)C3)c1` (configuration not stated), the TGI in assay [1], in assay [2], in assay [3], in assay [16], in assay [5] and in assay [6] was more than 10 µM each time. The TGI in [7], in [8], in assay [9], in assay [10], in assay [11] and in assay [12] was more than 10 µM in each case. Also, the TGI in assay [13], in assay [14] and in [15] was more than 10 µM in each case.

Take `O=C1NC(=O)C2(CCCCCC2)N1`: the TGI in assay [1], in [2], in assay [3], in [16], in [5] and in assay [6] was more than 100 µM throughout. For the same compound, the TGI in assay [7], in assay [8], in [9], in [10], in [11] and in assay [12] was more than 100 µM each time. The TGI in assay [13], in assay [14] and in assay [15] was more than 100 µM in each case.

Consider `CCOc1ccc(N/C(Cl)=C(Cl)\C(=C(\Nc2ccc(OCC)cc2)n2nnc3ccccc32)[N+](=O)[O-])cc1`, for which the TGI is 14.2 µM in [1]; 39 µM in assay [2]; 15.1 µM in [3]; 3.49 µM in [16]; more than 100 µM in [5]; 5.56 µM in assay [6]. The TGI was 3.96 µM in [7]; 17.3 µM in assay [8]; more than 59.7 µM in assay [9]; 21.6 µM in assay [10]; 5.39 µM in assay [11]; 35.5 µM in assay [12]. Also, the TGI came out at 29.1 µM in assay [13], 28.6 µM in assay [14] and 34.6 µM in assay [15].

In the case of `CC1CC[C@@]2(OC1)OC1CC3C4CCC5C[C@@H](OC6OC(CO)C(OC7OC(CO)C(O)C(OC8OC(CO)C(O)C(OC9OC(CO)C(O)C(O)C9O)C8O)C7OC7OC(CO)C(O)C(O)C7O)C(O)C6O)[C@H](O)C[C@]5(C)C4CC[C@]3(C)C1[C@@H]2C` (some centres not stated), the TGI in [1], in [2], in assay [3], in [16], in assay [4] and in assay [5] was more than 80.5 µM in each case. For the same compound, the TGI in assay [6], in [7], in assay [8], in assay [9], in assay [10] and in assay [11] was more than 80.5 µM each time. Further, the TGI in assay [13], in assay [14] and in assay [15] was more than 80.5 µM in each case.

For `COc1ccc(/C(O)=C/c2nc3cccnc3nc2/C=C(\O)c2ccc(OC)cc2)cc1`, the TGI is 10.4 µM in assay [1]; more than 100 µM in [2]; 53.5 µM in [3]; 46.5 µM in assay [16]; more than 100 µM in [4]; 20 µM in [5]. For the same compound, the TGI in [6] was more than 100 µM; in assay [7] it was 44.5 µM; in assay [8], 69.2 µM; in assay [9], 32.6 µM; in assay [10], more than 100 µM; in assay [12], 91.7 µM. Also, the TGI was 86.1 µM in assay [13], more than 100 µM in [14] and 44.7 µM in assay [15].

Regarding `Cc1cc(S(=O)(=O)Nc2cc(N)[nH]n2)c(SCc2nc(N)nc(N(C)C)n2)cc1Cl`, the TGI in assay [1], in [2], in [3], in assay [16], in [4] and in assay [5] was more than 10 µM in each case. Moreover, the TGI in [6], in assay [7], in assay [8], in [9], in assay [10] and in assay [11] was more than 10 µM throughout. In addition, the TGI in [12], in assay [13] and in assay [14] was more than 10 µM throughout.

As for `Cc1oc2c(Cl)cc(O)c(Cl)c2c2cccc1-2`, the TGI is 76 µM in assay [1]; more than 100 µM in assay [2]; more than 100 µM in [3]; more than 100 µM in assay [16]; more than 100 µM in [4]; 66.5 µM in assay [5]. The TGI in [6] was 52.1 µM; in assay [7], 36.1 µM; in assay [8] it was more than 100 µM; in assay [9] it was more than 100 µM; in [10], more than 100 µM; in assay [12], more than 100 µM. Moreover, the TGI in assay [13] is 16.5 µM; in assay [14], more than 100 µM; in assay [15], more than 100 µM.

Regarding `COC(=O)[C@@H]1CN(C(C)=O)C(=O)N1C(=O)OCc1ccccc1`, the TGI in assay [1], in [2], in [3], in assay [16], in assay [4] and in assay [5] was more than 100 µM throughout. The TGI in assay [6], in assay [7], in assay [8], in assay [9], in [10] and in [11] was more than 100 µM in each case. Also, the TGI in [12], in assay [13] and in assay [14] was more than 100 µM throughout.

These data come from PubChem BioAssay (NCI).
